We go through seven compounds from patent publication US7078380B2, “Antibacterial agents comprising conjugates of glycopeptides and peptidic membrane associating elements” (priority 2000, dated 2006).

Each structure is given as a SMILES string. Converted amounts (≈) assume the structure as drawn. Like-named read-outs stand apart in the source and are kept apart here. Positions of bridges follow the written chain, without caps; N, C: chain ends. Residues, ends and D or L forms follow the SMILES beside them. Chains are numbered I, II in the order given. *: point of attachment. Cys(free,S-linked) = N[C@@H](CS*)C(=O)O; Myristoyl = CCCCCCCCCCCCCC(=O)*; SPy = c1ccc(S*)nc1 Where only a bound is given, the exact number is not on record here.

In series [1] the test system is Enterococcus faecalis V 583 (Van B resistant phenotype). To be noted: E. faecalis V 583. As to the method:
(§1) Compounds were tested for antimicrobial activity against a variety of bacterial strains that included one or more of the following microorganisms: Escherichia coli strain TG1, Bacillus subtilis strain 168S, Staphylococcus aureus H, Enterococcus faecium STR 207 (Van A resistant phenotype), Enrterococcus faecium STR211 (Vancomycin sensitive phenotype), and Enterococcus faecalis V 583 (Van B resistant phenotype). For the testing of compounds for antimicrobial activity against E. coli and B. subtilis cultures of each bacterial strain were diluted in 2.5 mL of fresh LB broth to approximately 5×10^6 cells/mL for assay. […] The cultures were grown with shaking for up to 16 h at 37° C. for E. coli cultures and 30° C. for B. subtilis cultures. Antibacterial activity was determined from inspection of the turbidity of the different cultures and from determination of the optical density of the cultures at a wavelength of 600 nm. For the testing of compounds for antimicrobial activity against E. Faecium STR 207, E. faecium 211, E. faecalis V 583, and S. aureus H, a different procedure was used. These microorganisms were cultured in brain heart/0.5% yeast extract (BHY) broth and incubated overnight at 37° C. A sample of each culture was then diluted 40-fold in fresh BHY broth and incubated at 37° C. for 1 h. The resultant mid-log phase cultures were diluted to 106 cfu/mL, then added to wells of 96-well polypropylene plates. […] The 96-well plates were covered and incubated at 37° C. overnight. Minimum inhibitory concentrations were determined by inspection of turbidity after incubation.

The subject of series [2] is Enterococcus faecium STR 207 (Van A resistant phenotype). The following applies: E. faecium STR 207. As to the method:
as §1

Series [3] concerns Enterococcus faecium STR 211 (Vancomycin sensitive phenotype). As to the method:
as §1

The next series deals with Staphylococcus aureus H. As to the method:
as §1

The nature of a further series: Haemolysis assay. The format is cell-based. To be noted: sensitised sheep erythrocytes, 1 hour at 37° C., printed μM or uM, read-out: LC50 (concentration of compound required to give 50% lysis). As to the method: (§2) Lysis of sensitised sheep erythrocytes was measured using a standard haemolytic assay using a v-bottom microtitre plate format as follows:
(§3) 50 microlitres of a range of concentrations of compound diluted in Hepes buffer were mixed with 100 microlitres of sensitised sheep erythrocytes and then incubated for 1 hour at 37° C. Samples were spun at 1600 rpm at ambient temperature for 3 minutes before transferring 150 microlitres of supernatant to a flat bottom microtitre plate and determining the absorption at 405 or 410 nm. Maximum lysis (Amax) was determined by incubating serum with erythrbcytes in the presence of human serum diluted 1:400 (final concentration in assay mixture) in 0.1 M Hepes/0.15 M NaCl/0.1% gelatin pH 7.4. Background lysis (Ao) was determined by incubating erythrocytes in the absence of any serum or compound, using PBS as a control.

Series [4] concerns sensitised sheep erythrocytes. The series is described as follows: Haemolysis assay. The class given is cell-based. The following applies: 1 hour at 37° C., printed μM or uM, read-out: LC50 (concentration of compound required to give 50% lysis). As to the method:
as §2, §3

Series [5] has as its system Escherichia coli strain TG1. As to the method: as §1
The test system of series [6] is Bacillus subtilis strain 168S. As to the method:
Compounds were tested for antimicrobial activity against a variety of bacterial strains that included one or more of the following microorganisms: Escherichia coli strain TG1, Bacillus subtilis strain 168S, Staphylococcus aureus H, Enterococcus faecium STR 207 (Van A resistant phenotype), Enrterococcus faecium STR211 (Vancomycin sensitive phenotype), and Enterococcus faecalis V 583 (Van B resistant phenotype). For the testing of compounds for antimicrobial activity against E. coli and B. subtilis cultures of each bacterial strain were diluted in 2.5 mL of fresh LB broth to approximately 5×10^6 cells/mL for assay. […] Antibacterial activity was determined from inspection of the turbidity of the different cultures and from determination of the optical density of the cultures at a wavelength of 600 nm. For the testing of compounds for antimicrobial activity against E. Faecium STR 207, E. faecium 211, E. faecalis V 583, and S. aureus H, a different procedure was used. These microorganisms were cultured in brain heart/0.5% yeast extract (BHY) broth and incubated overnight at 37° C. A sample of each culture was then diluted 40-fold in fresh BHY broth and incubated at 37° C. for 1 h. The resultant mid-log phase cultures were diluted to 106 cfu/mL, then added to wells of 96-well polypropylene plates. […] The 96-well plates were covered and incubated at 37° C. overnight. Minimum inhibitory concentrations were determined by inspection of turbidity after incubation.

The next series can be described thus: physchem. To be noted: dimethylsulphoxide.
[7] abbreviates: STR 211 (Vancomycin sensitive phenotype).

Protocol for physchem: The 2-thiopyridyl content of the peptide was measured by dissolving it to around 0.03 mM to 0.2 mM in 0.1 M Sodium Borate pH 8.0 and reducing by addition of dithiothreitol to 5 mM. The change in optical density at 343 nm was used to calculate the amount of pyridine 2-thione released using an extinction coefficient at this wavelength of 8080 cm−1 M−1.

Turning to `CCCCCCCCCCCCCC(=O)NCC(=O)N[C@@H](CO)C(=O)N[C@@H](CO)C(=O)N[C@@H](CCCCN)C(=O)N[C@@H](CO)C(=O)N1CCC[C@H]1C(=O)N[C@@H](CO)C(=O)N[C@@H](CCCCN)C(=O)N[C@@H](CC(=O)O)C(=O)N[C@@H](CCCCN)C(=O)N[C@@H](CC(=O)O)C(=O)N[C@@H](CCCCN)C(=O)N[C@@H](CC(=O)O)C(=O)N1CCC[C@H]1C(=O)NCC(=O)N[C@@H](CC(=O)O)C(=O)N[C@@H](CSSCCNC(=O)[C@H]1NC(=O)[C@H]2NC(=O)[C@H](NC(=O)[C@@H]3NC(=O)[C@H](CC(N)=O)NC(=O)[C@H](NC(=O)[C@@H](CC(C)C)NC)[C@H](O)c4ccc(c(Cl)c4)Oc4cc3cc(c4O[C@@H]3O[C@H](CO)[C@@H](O)[C@H](O)[C@H]3O[C@H]3C[C@](C)(N)[C@H](O)[C@H](C)O3)Oc3ccc(cc3Cl)[C@H]2O)c2ccc(O)c(c2)-c2c(O)cc(O)cc21)C(N)=O` [APT2041], the minimum inhibitory concentration was 16 mg/L (≈ 4.62 µM) in series [1], 16 mg/L (≈ 4.62 µM) in series [2], 4 mg/L (≈ 1.15 µM) in series [3] (E. faecium STR 211) and 8 mg/L (≈ 2.31 µM) in the series on Staphylococcus aureus H (S. aureus H). For the same compound, the CC50 at 1 hour in the series “Haemolysis assay” turned out to be 4.5 µM.
Consider `CCCCCCCCCCCCCC(=O)NCC(=O)N[C@@H](CO)C(=O)N[C@@H](CO)C(=O)N[C@@H](CCCCN)C(=O)N[C@@H](CO)C(=O)N1CCC[C@H]1C(=O)N[C@@H](CO)C(=O)N[C@@H](CCCCN)C(=O)N[C@@H](CCCCN)C(=O)N[C@@H](CCCCN)C(=O)N[C@@H](CCCCN)C(=O)N[C@@H](CCCCN)C(=O)N[C@@H](CCCCN)C(=O)N1CCC[C@H]1C(=O)NCC(=O)N[C@@H](CC(=O)O)C(=O)N[C@@H](CSSC[C@H](N)C(=O)O)C(N)=O` [APT541] (Myristoyl-GSSKSPSKKKKKKPGDC(Cys(free,S-linked))-NH2), for which the minimum inhibitory concentration in [1] worked out at 256 mg/L (≈ 121 µM); in [3] (setting [7]), 64 mg/L (≈ 30.2 µM); in the series with Staphylococcus aureus H (H), 64 mg/L (≈ 30.2 µM).
Consider `CN[C@H](CC(C)C)C(=O)N[C@H]1C(=O)N[C@@H](CC(N)=O)C(=O)N[C@H]2C(=O)N[C@H]3C(=O)N[C@H](C(=O)N[C@H](C(=O)NCCS)c4cc(O)cc(O)c4-c4cc3ccc4O)[C@H](O)c3ccc(c(Cl)c3)Oc3cc2cc(c3O[C@@H]2O[C@H](CO)[C@@H](O)[C@H](O)[C@H]2O[C@H]2C[C@](C)(N)[C@H](O)[C@H](C)O2)Oc2ccc(cc2Cl)[C@H]1O.Cl` [APT2035], for which the results for the minimum inhibitory concentration (in series [1]; in [3] (E. faecium STR 211); with Staphylococcus aureus H (S. aureus H)) were 16 mg/L, 2 mg/L and 8 mg/L, respectively. Also, the CC50 in [4] is over 166 µM.
One may read the solubility as how much of the substance goes into solution per volume. A low value points to little dissolved substance. As to `CCCCCCCCCCCCCC(=O)NCC(=O)N[C@@H](CO)C(=O)N[C@@H](CO)C(=O)N[C@@H](CCCCN)C(=O)N[C@@H](CO)C(=O)N1CCC[C@H]1C(=O)N[C@@H](CO)C(=O)N[C@@H](CCCCN)C(=O)N[C@@H](CCCCN)C(=O)N[C@@H](CCCCN)C(=O)N[C@@H](CCCCN)C(=O)N[C@@H](CCCCN)C(=O)N[C@@H](CCCCN)C(=O)N1CCC[C@H]1C(=O)NCC(=O)N[C@@H](CC(=O)O)C(=O)N[C@@H](CSSc1ccccn1)C(N)=O` [APT542] (Myristoyl-GSSKSPSKKKKKKPGDC(SPy)-NH2), the minimum inhibitory concentration was determined as 256 mg/L (≈ 121 µM) in series [1], 64 mg/L (≈ 30.4 µM) in [2], 32 mg/L (≈ 15.2 µM) in series [3] (setting [7]) and 64 mg/L (≈ 30.4 µM) in the series with Staphylococcus aureus H (H). In addition, the “minimum inhibitory concentration to prevent the growth of E. coli strain TG1” value came to 22 mg/L in series [5] (strain TG1, 6 h) and 67 mg/L in [5] (strain TG1, 16 h). Also, the “minimum inhibitory concentration to prevent the growth of B. subtilis strain 168S” value turned out to be 3 mg/L in series [6] (6 h) and 22 mg/L in series [6] (24 h). Further, in the series “physchem”, the solubility is at least 10 mg/mL.
In the case of `CN[C@H](CC(C)C)C(=O)N[C@H]1C(=O)N[C@@H](CC(N)=O)C(=O)N[C@H]2C(=O)N[C@H]3C(=O)N[C@H](C(=O)N[C@H](C(=O)NCCSSc4ccccn4)c4cc(O)cc(O)c4-c4cc3ccc4O)[C@H](O)c3ccc(c(Cl)c3)Oc3cc2cc(c3O[C@@H]2O[C@H](CO)[C@@H](O)[C@H](O)[C@H]2O[C@H]2C[C@](C)(N)[C@H](O)[C@H](C)O2)Oc2ccc(cc2Cl)[C@H]1O.Cl` [APT2033], the minimum inhibitory concentration came out at 32 mg/L in series [1], 256 mg/L in series [2], 2 mg/L in [3] (E. faecium STR 211) and 4 mg/L in the series with Staphylococcus aureus H (S. aureus H). Moreover, the CC50 in series [4] was over 166 µM.
For the compound `CCCCCCCCCCCCCC(=O)NCC(=O)N[C@@H](CO)C(=O)N[C@@H](CO)C(=O)N[C@@H](CCCCN)C(=O)N[C@@H](CO)C(=O)N1CCC[C@H]1C(=O)N[C@@H](CO)C(=O)N[C@@H](CCCCN)C(=O)N[C@@H](CCCCN)C(=O)N[C@@H](CCCCN)C(=O)N[C@@H](CCCCN)C(=O)N[C@@H](CCCCN)C(=O)N[C@@H](CCCCN)C(=O)N1CCC[C@H]1C(=O)NCC(=O)N[C@@H](CC(=O)O)C(=O)N[C@@H](CSSC[C@H](NC(=O)[C@H](CC(=O)O)NC(=O)CNC(=O)[C@@H]1CCCN1C(=O)[C@H](CCCCN)NC(=O)[C@H](CCCCN)NC(=O)[C@H](CCCCN)NC(=O)[C@H](CCCCN)NC(=O)[C@H](CCCCN)NC(=O)[C@H](CCCCN)NC(=O)[C@H](CO)NC(=O)[C@@H]1CCCN1C(=O)[C@H](CO)NC(=O)[C@H](CCCCN)NC(=O)[C@H](CO)NC(=O)[C@H](CO)NC(=O)CNC(=O)CCCCCCCCCCCCC)C(N)=O)C(N)=O` [APT540] (I: Myristoyl-GSSKSPSKKKKKKPGDC-NH2 / II: Myristoyl-GSSKSPSKKKKKKPGDC-NH2; disulfide I:17-II:17), the “minimum inhibitory concentration to prevent the growth of E. coli strain TG1” value in [5] (strain TG1, 6 h) is 67 mg/L; in [5] (strain TG1, 16 h), 200 mg/L. Moreover, the “minimum inhibitory concentration to prevent the growth of B. subtilis strain 168S” value in [6] (6 h) and in [6] (24 h) was 7 mg/L throughout.
On to `CCCCCCCCCCCCCC(=O)NCC(=O)N[C@@H](CO)C(=O)N[C@@H](CO)C(=O)N[C@@H](CCCCN)C(=O)N[C@@H](CO)C(=O)N1CCC[C@H]1C(=O)N[C@@H](CO)C(=O)N[C@@H](CCCCN)C(=O)N[C@@H](CCCCN)C(=O)N[C@@H](CCCCN)C(=O)N[C@@H](CCCCN)C(=O)N[C@@H](CCCCN)C(=O)N[C@@H](CCCCN)C(=O)N1CCC[C@H]1C(=O)NCC(=O)N[C@@H](CC(=O)O)C(=O)N[C@@H](CSSCCNC(=O)[C@H]1NC(=O)[C@H]2NC(=O)[C@H](NC(=O)[C@@H]3NC(=O)[C@H](CC(N)=O)NC(=O)[C@H](NC(=O)[C@@H](CC(C)C)NC)[C@H](O)c4ccc(c(Cl)c4)Oc4cc3cc(c4O[C@@H]3O[C@H](CO)[C@@H](O)[C@H](O)[C@H]3O[C@H]3C[C@](C)(N)[C@H](O)[C@H](C)O3)Oc3ccc(cc3Cl)[C@H]2O)c2ccc(O)c(c2)-c2c(O)cc(O)cc21)C(N)=O` [APT2036], for which the minimum inhibitory concentration stood at 8 mg/L (≈ 2.28 µM) in series [1], 8 mg/L (≈ 2.28 µM) in [2], 8 mg/L (≈ 2.28 µM) in series [3] (E. faecium STR 211) and 4 mg/L (≈ 1.14 µM) with Staphylococcus aureus H (S. aureus H). Besides, the CC50 at 1 hour in the series “Haemolysis assay” amounted to 71 µM.
